Laboratory results: patent US4985447A, “Certain benzoquinones, naphthoquinones and derivatives thereof which exhibit thromboxane A2 synthetase inhibition or receptor antagonism and the like” (Takeda Chemical Industries, Ltd., priority 1986, dated 1991)
Where two headings read alike, the source gives them in different places.

Key:
[1] = biological target: T1, Thromboxane A2 (TXA2) synthetase (Equus caballus, UniProt A0A9L0T8T9); test: Inhibition of Thromboxane A2 (TXA2) synthetase (horse platelet microsome); format: biochemical; conditions: read-out: Inhibition of Thromboxane A2 (TXA2) synthetase
T1 sequence (A0A9L0T8T9 2-534): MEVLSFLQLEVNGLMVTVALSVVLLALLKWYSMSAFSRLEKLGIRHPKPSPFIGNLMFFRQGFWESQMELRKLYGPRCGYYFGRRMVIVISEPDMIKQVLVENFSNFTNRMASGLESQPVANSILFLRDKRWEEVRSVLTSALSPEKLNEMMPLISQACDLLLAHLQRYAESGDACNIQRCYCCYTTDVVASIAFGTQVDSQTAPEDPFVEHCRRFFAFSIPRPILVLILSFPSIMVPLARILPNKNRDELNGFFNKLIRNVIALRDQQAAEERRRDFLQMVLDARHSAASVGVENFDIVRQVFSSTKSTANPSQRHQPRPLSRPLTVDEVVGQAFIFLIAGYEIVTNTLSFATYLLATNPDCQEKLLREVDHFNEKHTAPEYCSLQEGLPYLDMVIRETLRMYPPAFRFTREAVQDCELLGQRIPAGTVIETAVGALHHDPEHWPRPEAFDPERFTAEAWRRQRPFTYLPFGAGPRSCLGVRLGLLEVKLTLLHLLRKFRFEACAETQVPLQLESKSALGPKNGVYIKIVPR
Description: Inhibition of Thromboxane A2 (TXA2) synthetase
(§1) As a preparation of TXA2 synthetase, horse platelet microsome treated with indomethacin (indomethacin-treated horse platelet microsome: IPM) according to the method of Needleman et al. (Science 193 163, 1979) was used. To 60 μl of the solution of IPM in 50 mM Tris buffer(pH 7.5) (containing 140 μg on the protein basis), 60μof a solution containing a drug at a variable concentration was added and kept still at room temperature for 5 minutes. One hundred μl of this mixture was taken, to which 20 μl of a buffer containing 30 ng cf prostaglandin H2 (PGH2) with ice-cooling and kept still at 0° C. for 5 minutes to produce thromboxane A2 (TXA2). The reaction was stopped by addition of 500 μl of Tris buffer, and 50 μl of the resultant solution was subjected to radioimmunoassay of thromboxane B2 (TXB2), a stable metabolite of TXA2 [Shibouta et al. Biochem. Pharmacol. 28 3601, 1979]. The rate of inhibition (%) of TXA2 synthetase was determined from the difference in TXB2 productivity between the untreated group and the treated group.
as §1, with “60 μl of” for “60μof”, “of” for “cf”

[2] = tested on: lipid peroxide in rat brain homogenate; test: Inhibition of production of lipid peroxide in rat brain homogenate; format: biochemical, rat (Sprague-Dawley)
Description: Procedure: Sprague-Dawley rats (male, 9-15 weeks old) anesthetized with pentobarbital (50 mg/kg, intraperitoneal administration) were venesected and the brain tissue was resected. The tissue was homogenized in phosphate buffer (pH 7.4), and used as a 5% homogenate (on weight basis). The brain homogenate was allowed to react at 37° C. for 1 hour, and the amount of lipid peroxide produced was determined with the thiobarbituric acid method according to the method of Okawa et al. (Analytical Biochem 95 551, 1979). The drug was added to the 5% homogenate before the reaction at 37° C. for 1 hour so that the final concentration might be 5×10^-7 or 10^-6 M. Inhibition of production of lipid peroxide was expressed as the rate of inhibition in % of the amount produced in the solvent(DMSO)-treated group.

[3] = biological target: T2, 5-lipoxygenase (Rattus norvegicus, UniProt P12527); test: Inhibition of 5-lipoxygenase (production of 5-HETE in RBL-1 cells); format: cell-based, rat (RBL-1, rat basophilic leukemia cells); conditions: for inhibition at 1 µM: 10^-6 M; for inhibition at 0.1 µM: 10^-7 M
T2 construct: endogenous in cells; host or cells: RBL-1 cells (rat basophilic leukemia)
T2 sequence (P12527 1-673): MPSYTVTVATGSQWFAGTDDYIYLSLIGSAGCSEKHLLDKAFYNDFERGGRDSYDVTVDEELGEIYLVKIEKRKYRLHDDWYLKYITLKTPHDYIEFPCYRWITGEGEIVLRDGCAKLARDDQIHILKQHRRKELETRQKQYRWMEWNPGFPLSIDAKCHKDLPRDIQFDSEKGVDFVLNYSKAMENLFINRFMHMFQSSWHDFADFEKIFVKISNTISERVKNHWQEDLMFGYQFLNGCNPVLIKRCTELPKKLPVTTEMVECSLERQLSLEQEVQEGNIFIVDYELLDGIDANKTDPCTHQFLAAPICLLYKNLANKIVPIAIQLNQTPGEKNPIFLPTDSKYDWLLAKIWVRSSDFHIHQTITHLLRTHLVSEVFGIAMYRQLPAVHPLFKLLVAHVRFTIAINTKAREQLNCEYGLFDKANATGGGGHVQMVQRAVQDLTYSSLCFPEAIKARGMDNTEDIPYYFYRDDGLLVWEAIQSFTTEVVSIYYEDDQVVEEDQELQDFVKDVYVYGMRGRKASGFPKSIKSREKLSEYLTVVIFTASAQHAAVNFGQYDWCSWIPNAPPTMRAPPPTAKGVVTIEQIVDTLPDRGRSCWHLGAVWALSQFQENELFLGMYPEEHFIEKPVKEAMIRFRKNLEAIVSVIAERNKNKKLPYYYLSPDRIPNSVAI
Description: Inhibition of 5-lipoxygenase
10^7 RBL-1 cells (rat basophilic leukemia cells) were suspended in 0.5 ml of MCM (mast cell medium ). To the suspension was subsequently added a solution consisting of 0.5 ml of MCM, 50 μg of arachidonic acid, 10 μg of A-23187 (calcium ionophore, Eli Lilly), and a solution of a quinone compound in ethanol at the final concentration of 1 μM, 0.1 μM, 0.01 μM or 0.001 μM of the test compound was added and allowed to react at 37° C. for 20 minutes. After the reaction, 4 ml of ethanol containing 1,4-dimethoxy-2-methyl-3-(3-methoxypropyl)naphthalene as an internal standard were added, mixed well by shaking, and kept at room temperature for 10 minutes. Then the mixture was centrifuged for 10 minutes (2000 rpm), and the supernatant was separated. The supernatant was concentrated to dryness under reduced pressure. To the concentrate, 0.5 ml of 60% aqueous methanol was added. One hundred μl of this solution was subjected to high performance liquid chromatography for quantitative analysis of 5-HETE (5-hydroxyeicosatetraenoic acid). The amount of 5-HETE was analyzed by measurement of the absorbance at […] with a UV absorption monitor.
Inhibitory effect (IE) of production of 5-HETE is expressed by (1-b/a)×100, wherein a is the peak height or the area corrected with the peak due to the internal standard in the absence of the quinone compound, and b is the peak hight or peak area corrected with the peak due to the internal standard in the presence of the quinone compound.

SMILES: CC1=C(C)C(=O)C(C(c2ccccc2)c2cccnc2)=C(C)C1=O (centres unmarked) [Compound No. 2, 3,5,6-trimethyl-2-[phenyl-(3-pyridyl)methyl]-1,4-benzoquinone]
- inhibition at 0.1 µM [1]: 45%
- inhibition at 1 µM [1]: 89%
- Inhibition of production of lipid peroxide in rat brain homogenate ([2]; 5 × 10^-7 M): 32%
- Inhibition of production of lipid peroxide in rat brain homogenate ([2]; 10^-6 M): 100%
- inhibition at 1 µM [3]: 85%
- inhibition at 0.1 µM [3]: 60%

SMILES: CC(=Cc1ccc(C(C2=C(C)C(=O)C(C)=C(C)C2=O)c2cccnc2)cc1)C(=O)O (stereo not drawn) [Compound No. 5, 4-[3,5,6-trimethyl-1,4-benzoquinon-2-yl(3-pyridyl)methyl]-α-methylcinnamic acid]
- inhibition at 1 µM ([1]; 10^-6 M): 65%
- inhibition at 0.1 µM ([1]; 10^-7 M): 7%
- Inhibition of production of lipid peroxide in rat brain homogenate ([2]; 5 × 10^-7 M): 29%
- Inhibition of production of lipid peroxide in rat brain homogenate ([2]; 10^-6 M): 100%
- inhibition at 1 µM [3]: 73%
- inhibition at 0.1 µM [3]: 28%

SMILES: CCCCC(C1=C(C)C(=O)C(C)=C(C)C1=O)c1cccnc1 (centres unmarked) [Compound No. 7, 2-[1-(3-pyridyl)pentyl]-3,5,6-trimethyl-1,4-benzoquinone]
- inhibition at 1 µM ([1]; 10^-6 M): 32%
- Inhibition of production of lipid peroxide in rat brain homogenate ([2]; 5 × 10^-7 M): 26%
- Inhibition of production of lipid peroxide in rat brain homogenate ([2]; 10^-6 M): 100%
- inhibition at 1 µM [3]: 86%
- inhibition at 0.1 µM [3]: 35%

SMILES: CC1=C(C)C(=O)C(Cc2cccnc2)=C(C)C1=O [Compound No. 14]
- inhibition at 1 µM ([1]; 10^-6 M): 61%
- inhibition at 0.1 µM ([1]; 10^-7 M): 35%
- Inhibition of production of lipid peroxide in rat brain homogenate ([2]; 5 × 10^-7 M): 46%
- Inhibition of production of lipid peroxide in rat brain homogenate ([2]; 10^-6 M): 100%
- inhibition at 1 µM [3]: 92%
- inhibition at 0.1 µM [3]: 80%

SMILES: CCCCCCC(C1=C(C)C(=O)C(C)=C(C)C1=O)c1cccnc1 (centres unmarked) [Compound No. 16, 1-(3,5,6-trimethyl-1,4-benzoquinon-2-yl)-1-(3-pyridyl)heptane]
- inhibition at 1 µM ([1]; 10^-6 M): 49%
- inhibition at 0.1 µM ([1]; 10^-7 M): 6%
- Inhibition of production of lipid peroxide in rat brain homogenate ([2]; 5 × 10^-7 M): 44%
- Inhibition of production of lipid peroxide in rat brain homogenate ([2]; 10^-6 M): 100%
- inhibition at 1 µM [3]: 96%
- inhibition at 0.1 µM [3]: 77%

SMILES: CC1=C(C)C(=O)C(C(CCCCO)c2cccnc2)=C(C)C1=O (centres unmarked) [compound 8]
- inhibition at 1 µM ([1]; 10^-6 M): 37%
- inhibition at 0.1 µM ([1]; 10^-7 M): 6%
- Inhibition of production of lipid peroxide in rat brain homogenate ([2]; 5 × 10^-7 M): 20%
- Inhibition of production of lipid peroxide in rat brain homogenate ([2]; 10^-6 M): 100%
- inhibition at 1 µM [3]: 88%
- inhibition at 0.1 µM [3]: 63%

SMILES: CC(=O)OCCCCC(C1=C(C)C(=O)C(C)=C(C)C1=O)c1cccnc1 (centres unmarked) [compound 9]
- inhibition at 1 µM ([1]; 10^-6 M): 54%
- inhibition at 0.1 µM ([1]; 10^-7 M): 18%
- Inhibition of production of lipid peroxide in rat brain homogenate ([2]; 5 × 10^-7 M): 17%
- Inhibition of production of lipid peroxide in rat brain homogenate ([2]; 10^-6 M): 100%
- inhibition at 1 µM [3]: 90%
- inhibition at 0.1 µM [3]: 62%

SMILES: CC1=C(C)C(=O)C(C(CCCCC(=O)O)c2cccnc2)=C(C)C1=O (centres unmarked) [compound 10]
- inhibition at 1 µM ([1]; 10^-6 M): 67%
- inhibition at 0.1 µM ([1]; 10^-7 M): 24%
- Inhibition of production of lipid peroxide in rat brain homogenate ([2]; 5 × 10^-7 M): 13%
- Inhibition of production of lipid peroxide in rat brain homogenate ([2]; 10^-6 M): 100%
- inhibition at 1 µM [3]: 90%
- inhibition at 0.1 µM [3]: 52%

SMILES: CC1=C(C)C(=O)C(C(CCCCCO)c2cccnc2)=C(C)C1=O (centres unmarked) [compound 11]
- inhibition at 1 µM ([1]; 10^-6 M): 67%
- inhibition at 0.1 µM ([1]; 10^-7 M): 13%
- Inhibition of production of lipid peroxide in rat brain homogenate ([2]; 5 × 10^-7 M): 15%
- Inhibition of production of lipid peroxide in rat brain homogenate ([2]; 10^-6 M): 100%
- inhibition at 1 µM [3]: 88%
- inhibition at 0.1 µM [3]: 61%

SMILES: CC(=O)OCCCCCC(C1=C(C)C(=O)C(C)=C(C)C1=O)c1cccnc1 (centres unmarked) [compound 12]
- inhibition at 1 µM ([1]; 10^-6 M): 56%
- inhibition at 0.1 µM ([1]; 10^-7 M): 22%
- Inhibition of production of lipid peroxide in rat brain homogenate ([2]; 5 × 10^-7 M): 15%
- Inhibition of production of lipid peroxide in rat brain homogenate ([2]; 10^-6 M): 100%
- inhibition at 1 µM [3]: 91%
- inhibition at 0.1 µM [3]: 67%

SMILES: CCC(C1=C(C)C(=O)C(C)=C(C)C1=O)c1cccnc1 (centres unmarked) [compound 15]
- inhibition at 1 µM ([1]; 10^-6 M): 76%
- inhibition at 0.1 µM ([1]; 10^-7 M): 15%
- Inhibition of production of lipid peroxide in rat brain homogenate ([2]; 5 × 10^-7 M): 52%
- Inhibition of production of lipid peroxide in rat brain homogenate ([2]; 10^-6 M): 100%
- inhibition at 1 µM [3]: 91%
- inhibition at 0.1 µM [3]: 57%
